“And” between values parts separate entries of the source, which are not always exact repeats. Identical values can stand only once.
Tests used:
U87MG glioblastoma cells = test: Fluorescent microscopy of probe in cells; format: cell-based, human; conditions: 10 µM; for fluorescence in cells: 2 h
Description: In total, 20,000 cells/ml of U87MG, HEK293T, hASTRO and 4T1 were seeded onto glass cover slips in 24-well plates. The cells incubated at 37 °C in a 5% CO2 atmosphere overnight. Cells were washed with 1 ml of PBS buffer two times, then a 10 μM solution of probes was added to each well for 2 h. For nuclei staining, 1 µg/ml of DAPI was added the last 15 min of treatment. The cover slips were removed and washed with PBS buffer, and fixed with 0.5 ml of 4% formaldehyde solution for 10 min. The cover slips were washed with 1 ml of PBS, then slides were prepared using Mounting Media (Merck Life Science). Fluorescence images were acquired using a Leica THUNDER Imager 3D Live Cell (Leica Microsystems, Wetzlar, Germany) microscope equipped with an S Fluor 40×/1.3 objective using the LAS X software.

ALDH1A3 = target: T1, ALDH1A3 (Homo sapiens, UniProt P47895); test: Kd evaluation by fluorescence emission assay; format: binding; conditions: probe 10 μM, ALDH1A3 100 to 1.1719 μM
T1 construct: E. coli BL21 (DE3) were transformed with the full-length expression vector of each isoform; His-tag; made in house; host or cells: E. coli BL21 (DE3)
T1 sequence (P47895 1-512): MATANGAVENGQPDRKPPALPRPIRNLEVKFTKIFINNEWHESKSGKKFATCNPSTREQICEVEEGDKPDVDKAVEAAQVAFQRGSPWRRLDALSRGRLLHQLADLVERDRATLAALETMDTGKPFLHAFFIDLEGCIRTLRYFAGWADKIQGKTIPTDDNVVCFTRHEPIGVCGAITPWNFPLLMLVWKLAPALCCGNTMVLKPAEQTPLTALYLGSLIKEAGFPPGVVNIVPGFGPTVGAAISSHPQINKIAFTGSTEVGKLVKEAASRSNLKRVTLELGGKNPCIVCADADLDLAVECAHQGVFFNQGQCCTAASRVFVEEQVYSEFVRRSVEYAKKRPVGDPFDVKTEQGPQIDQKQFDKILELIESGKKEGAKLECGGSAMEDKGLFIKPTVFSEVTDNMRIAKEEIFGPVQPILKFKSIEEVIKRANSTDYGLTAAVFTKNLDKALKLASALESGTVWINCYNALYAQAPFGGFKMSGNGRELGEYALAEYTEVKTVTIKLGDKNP
Description: (§1) To evaluate the Kd constant between the two probes and the isoenzymes ALDH1A1, ALDH1A2 and ALDH1A3A we performed a fluorescence emission assay. We used a Tecan Spark with Greiner Bio-One 96-UV-Transparent Microplates. A single reaction was performed in a total volume of 100 μl per well containing 20 mM Tris HCl pH 8.0, 1 mM β-mercaptoethanol, 150 mM KCl, 500 μM NAD^+ and 10 μM fluorescent probe with a 5% DMSO final concentration, in the presence of different ALDH1As concentrations, from 100 μM to 1.1719 μM. Each reaction mix was preincubated for 10 min at 25 °C before the analysis. The obtained raw data were analyzed using GraphPad to calculate Kd values.

ALDH1A1 = target: T2, ALDH1A1 (Homo sapiens, UniProt P00352); test: Kd evaluation by fluorescence emission assay; format: binding; conditions: probe 10 μM, ALDH1A1 100 to 1.1719 μM
T2 construct: E. coli BL21 (DE3) were transformed with the full-length expression vector of each isoform; His-tag; made in house; host or cells: E. coli BL21 (DE3)
T2 sequence (P00352 1-501): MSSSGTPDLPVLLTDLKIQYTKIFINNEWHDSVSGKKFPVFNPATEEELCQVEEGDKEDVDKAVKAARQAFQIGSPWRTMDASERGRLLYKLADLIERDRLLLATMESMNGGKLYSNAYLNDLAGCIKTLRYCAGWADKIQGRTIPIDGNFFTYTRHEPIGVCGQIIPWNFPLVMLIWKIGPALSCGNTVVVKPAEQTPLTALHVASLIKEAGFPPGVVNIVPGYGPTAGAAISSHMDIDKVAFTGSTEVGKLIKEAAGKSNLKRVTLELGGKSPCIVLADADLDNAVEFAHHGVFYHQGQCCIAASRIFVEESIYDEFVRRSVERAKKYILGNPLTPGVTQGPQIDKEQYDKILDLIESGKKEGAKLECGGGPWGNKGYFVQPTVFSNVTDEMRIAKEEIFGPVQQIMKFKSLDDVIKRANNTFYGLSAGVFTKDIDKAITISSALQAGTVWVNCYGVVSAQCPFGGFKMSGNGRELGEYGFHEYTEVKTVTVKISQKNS
Description: as §1

ALDH1A2 = target: T3, ALDH1A2 (Homo sapiens, UniProt O94788); test: Kd evaluation by fluorescence emission assay; format: binding; conditions: probe 10 μM, ALDH1A2 100 to 1.1719 μM
T3 construct: E. coli BL21 (DE3) were transformed with the full-length expression vector of each isoform; His-tag; made in house; host or cells: E. coli BL21 (DE3)
T3 sequence (O94788 1-518): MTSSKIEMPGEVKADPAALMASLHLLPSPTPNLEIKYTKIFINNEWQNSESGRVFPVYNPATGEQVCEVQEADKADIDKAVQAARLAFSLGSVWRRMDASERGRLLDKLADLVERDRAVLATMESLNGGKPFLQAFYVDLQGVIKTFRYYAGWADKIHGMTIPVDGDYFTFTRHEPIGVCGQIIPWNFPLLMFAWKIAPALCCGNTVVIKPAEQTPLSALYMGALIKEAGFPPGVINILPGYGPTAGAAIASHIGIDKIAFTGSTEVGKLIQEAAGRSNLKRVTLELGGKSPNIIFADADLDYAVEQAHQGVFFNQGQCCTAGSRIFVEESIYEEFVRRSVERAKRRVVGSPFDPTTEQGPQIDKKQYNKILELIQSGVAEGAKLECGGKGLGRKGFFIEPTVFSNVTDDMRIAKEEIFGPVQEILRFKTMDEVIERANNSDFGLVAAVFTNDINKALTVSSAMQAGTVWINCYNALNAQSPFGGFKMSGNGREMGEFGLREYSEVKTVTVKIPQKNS
Description: as §1

Row | SMILES | fluorescence in cells (U87MG glioblastoma cells) | If ROI (U87MG glioblastoma cells; U87-MG, 2 h (Fig. 5g)) | Kd (ALDH1A3) [µM] | Kd (ALDH1A1) [µM] | Kd (ALDH1A2) [µM]
1 | COc1cc(/C=C/C(O)=C/C(=O)/C=C/c2ccc(OCc3cn(CCOc4ccc(C=O)cc4)nn3)c(OC)c2)ccc1O [Probe 10] | can determine fluorescence | 238.82 a.u. and 283.69 a.u. and 302.7 a.u. and 195.53 a.u. and 182.63 a.u. | 38.2 | 31.1 | 36.9
2 | CCOC(=O)Cn1cc(COc2ccc(/C=C/C(=O)/C=C(O)/C=C/c3ccc(O)c(OC)c3)cc2OC)nn1 [Probe 11] | fluorescence has been observed using Probe 11 only in U87MG cell lines | – | 84.3 | 42.4 | 125

— PMC9437101, “Curcumin-based-fluorescent probes targeting ALDH1A3 as a promising tool for glioblastoma precision surgery and early diagnosis” (Communications Biology, 2022)
